Reference: ChEMBL document CHEMBL3885881, “DrugMatrix”

Species: Rattus norvegicus
Assay: DrugMatrix - Regimen: Daily Repeat
Type: toxicity, organism-based, Sprague-Dawley
Set-up: regimen Daily Repeat, gender Male, age 6-8 weeks
Settings: in vivo, ip, 10 mg/kg, route intraperitoneal, dose level High, vehicle 100 % SALINE; for ALANINE AMINOTRANSFERASE / ALBUMIN / ALKALINE PHOSPHATASE / ASPARTATE AMINOTRANSFERASE / BLOOD UREA NITROGEN / CHLORIDE / CHOLESTEROL / CREATINE PHOSPHOKINASE / CREATININE / GLUCOSE / LACTATE DEHYDROGENASE / LIPASE / PHOSPHORUS / SODIUM / TOTAL BILIRUBIN / TOTAL PROTEIN / URIC ACID / POTASSIUM: tissue Plasma
[1] = 120 h, tissue Blood, time 5 day

## COBALTOUS CHLORIDE
[1]
  ABSOLUTE EOSINOPHIL: 74 cells/µL
  ABSOLUTE LYMPHOCYTE: 8680 cells/µL
  ABSOLUTE MONOCYTE: 210 cells/µL
  ABSOLUTE SEGMENTED NEUTROPHIL: 1660 cells/µL
  BASOPHIL: 0.44%
  EOSINOPHIL: 0.68%
  ERYTHROCYTE COUNT: 7.83 x10E6/uL
  HEMATOCRIT: 48.96%
  HEMOGLOBIN: 15.82 G/DL
  LEUKOCYTE COUNT: 10.72 x10E3/uL
  LYMPHOCYTE: 81.38%
  MEAN CORPUSCULAR HEMOGLOBIN: 20.22 pg
  MEAN CORPUSCULAR HEMOGLOBIN CONCENTRATION: 32.34 G/DL
  MEAN CORPUSCULAR VOLUME: 62.58 fL
  MONOCYTE: 1.94%
  NEUTROPHIL: 15.1%
  PLATELET COUNT: 1648.2 x10E3/uL
120 h, time 5 day
  ALANINE AMINOTRANSFERASE: 27.2 u/L
  ALBUMIN: 3.7 G/DL
  ALKALINE PHOSPHATASE: 212.6 u/L
  ASPARTATE AMINOTRANSFERASE: 86.6 u/L
  BLOOD UREA NITROGEN: 17.2 mg/dL
  CHLORIDE: 110.4 MEQ/L
  CHOLESTEROL: 49.8 mg/dL
  CREATINE PHOSPHOKINASE: 277.6 u/L
  CREATININE: 0.56 mg/dL
  GLUCOSE: 125.8 mg/dL
  LACTATE DEHYDROGENASE: 60.2 u/L
  LIPASE: 31.2 u/L
  PHOSPHORUS: 11.88 mg/dL
  SODIUM: 148.6 MEQ/L
  TOTAL BILIRUBIN: 0.26 mg/dL
  TOTAL PROTEIN: 6.26 G/DL
  URIC ACID: 1.38 mg/dL
[…], tissue Blood, time 14 day
  ABSOLUTE BASOPHIL: 72 cells/µL
  ABSOLUTE EOSINOPHIL: 76 cells/µL
  ABSOLUTE LYMPHOCYTE: 8200 cells/µL
  ABSOLUTE MONOCYTE: 260 cells/µL
  ABSOLUTE SEGMENTED NEUTROPHIL: 1320 cells/µL
  BASOPHIL: 0.66%
  EOSINOPHIL: 0.8%
  ERYTHROCYTE COUNT: 8.58 x10E6/uL
  HEMATOCRIT: 54.6%
  HEMOGLOBIN: 17.66 G/DL
  LEUKOCYTE COUNT: 9.97 x10E3/uL
  LYMPHOCYTE: 81.92%
  MEAN CORPUSCULAR HEMOGLOBIN: 20.62 pg
  MEAN CORPUSCULAR HEMOGLOBIN CONCENTRATION: 32.34 G/DL
  MONOCYTE: 2.54%
  NEUTROPHIL: 13.72%
  PLATELET COUNT: 1213.6 x10E3/uL
[…], tissue Blood, time 28 day
  ABSOLUTE BASOPHIL: 170 cells/µL
  ABSOLUTE EOSINOPHIL: 160 cells/µL
  ABSOLUTE LYMPHOCYTE: 8960 cells/µL
  ABSOLUTE MONOCYTE: 240 cells/µL
  ABSOLUTE SEGMENTED NEUTROPHIL: 2230 cells/µL
  BASOPHIL: 1.38%
  EOSINOPHIL: 1.23%
  ERYTHROCYTE COUNT: 9.9 x10E6/uL
  HEMATOCRIT: 61.68%
  HEMOGLOBIN: 19.49 G/DL
  LEUKOCYTE COUNT: 11.78 x10E3/uL
  LYMPHOCYTE: 76.07%
  MEAN CORPUSCULAR HEMOGLOBIN: 19.7 pg
  MEAN CORPUSCULAR HEMOGLOBIN CONCENTRATION: 31.56 G/DL
  MONOCYTE: 2.09%
  NEUTROPHIL: 19.02%
  PLATELET COUNT: 1119.7 x10E3/uL
[…], time 14 day
  ALANINE AMINOTRANSFERASE: 29 u/L
  ALBUMIN: 3.74 G/DL
  ALKALINE PHOSPHATASE: 189.6 u/L
  ASPARTATE AMINOTRANSFERASE: 91.8 u/L
  BLOOD UREA NITROGEN: 14.6 mg/dL
  CHLORIDE: 112 MEQ/L
  CHOLESTEROL: 48.8 mg/dL
  CREATINE PHOSPHOKINASE: 182.6 u/L
  CREATININE: 0.52 mg/dL
  GLUCOSE: 124.8 mg/dL
  LACTATE DEHYDROGENASE: 103.2 u/L
  LIPASE: 22 u/L
  POTASSIUM: 6.24 MEQ/L
  SODIUM: 149.8 MEQ/L
  TOTAL BILIRUBIN: 0.26 mg/dL
  TOTAL PROTEIN: 6.68 G/DL
  URIC ACID: 1.26 mg/dL
[…], time 28 day
  ALANINE AMINOTRANSFERASE: 38.1 u/L
  ALBUMIN: 3.64 G/DL
  ALKALINE PHOSPHATASE: 126.6 u/L
  ASPARTATE AMINOTRANSFERASE: 117.5 u/L
  BLOOD UREA NITROGEN: 15.5 mg/dL
  CHLORIDE: 110.7 MEQ/L
  CHOLESTEROL: 27.7 mg/dL
  CREATINE PHOSPHOKINASE: 386.4 u/L
  CREATININE: 0.7 mg/dL
  GLUCOSE: 88.3 mg/dL
  LACTATE DEHYDROGENASE: 116.6 u/L
  LIPASE: 2.8 u/L
  PHOSPHORUS: 10.92 mg/dL
  POTASSIUM: 6.81 MEQ/L
  SODIUM: 152.5 MEQ/L
  TOTAL BILIRUBIN: 0.33 mg/dL
  TOTAL PROTEIN: 6.59 G/DL
  URIC ACID: 1.31 mg/dL
